Assays:
[1] = Cyclic voltammetry, Cu(II)/Cu(I) reduction potential; format: physicochemical; details: vs. SCE, in DMF, glassy carbon electrode
Description: Cyclic voltammograms were recorded using an AUTOLAB PGSTAT100 equipped with GPES V4.9 software. Measurements of the complexes were carried out at approximately 1×10^−3 M in dimethylformamide with tetrabutylammonium tetrafluoroborate (1×10^−1 M) as electrolyte using a glassy carbon disk (d, 3 mm) working electrode, a Pt wire counter/auxiliary electrode, and a Ag/Ag^+ pseudo reference electrode (silver wire in H2O (KCl (0.1 M)) AgNO3 (0.01 M)). Ferrocene was used as an internal reference (Em(Fc/Fc^+)=0.54 V vs. SCE), where Em refers to the midpoint between a reversible reductive (Epc) and oxidative (Epa) couple, given by Em=(Epc+Epa)/2. Irreversible systems are only given reductive (Epc) and oxidative (Epa) values, respectively.

Aβ plaques = assay: Fluorescence staining of human AD brain tissue sections, co-localisation with 1E8 immunostaining; format: binding; details: post-mortem AD human brain, 7 μm serial sections, BSA pre-treated
Excerpt: Fluorescence Staining of Human AD Brain. Tissues(^10) Paraffin preserved brain tissue blocks were provided by the Victoria Brain Bank Network. Brain tissue was collected at autopsy. The National Neural Tissue Resource Centre performed Sourcing and preparation of human brain tissue. AD pathologic diagnosis was made according to standard National Institute on Aging-Reagan Institute criteria. Determination of age-matched Human control (HC) cases was subject to the above criteria. The AD and HC brain tissues sections ([…]) were first de-paraffined (xylene, 3×2 min) followed by rehydration (soaking in a series of 100%, 90%, 70% and 0% v/v ethanol/di water). The hydrated tissue sections were washed in phosphate buffer saline (PBS, 5 min). Auto-fluorescence of the tissue was quenched using potassium permanganate (0.25% in PBS, 20 min) and washing with PBS (2×2 min) to remove the excess. […] Finally, the sections were washed with PBS (3×2 min), di water and mounted with non-fluorescent mounting media (Dako), Fluorescence images were visualised using a Leica (Bannockburn, Ill.) DM1RB microscope. […] The tissue was subsequently examined by fluorescent microscopy (epi-fluorescence, λex=420 nm, λex=470 nm) and compared to a sequential brain tissue cross section immunostained with an Aβ antibody (1 E8). […]

[2] = Partition coefficients (Log D) for 64Cu complexes; format: physicochemical; details: 64Cu complex of the listed ligand

CN=C([S-])N/N=C(C)/C(C)=N/NC([S-])=NC.[Cu+2] [CuII (atsm)]
reduction potential Em (Cu^II/Cu^I couple) [1]: −0.59 V

CC(=N\NC(=S)NCCN(C)C)/C(C)=N/Nc1ccc(/C=C/c2ccc(N(C)C)cc2)cn1 [Example H2L3, Diacetyl-2-((E)-2-hydrazino-pyridinyl-4-(4′-N,N-dimethylaminostilbene))-(4-dimethylaminoethyl-3-thiosemicarbazone)]
binding to Aβ plaques (co-localisation of epi-fluorescence with 1E8 antibody immunostaining) (Aβ plaques): binding selectively to Aβ plaques

CNC(S)=NN=C(C)C(C)=NN=C(S)NC [atsmH2a]
Log D of complex [2]: 1.48
